Drawing on US10472364B2 (Calithera Biosciences, Inc., priority 2016, dated 2019), this text covers IC50 for 18 compounds.

The target in this assay is endogenous, cell-bound CD73 on SK-MEL-28 cells (Homo sapiens (Human), UniProt P21589). Briefly: Inhibition of endogenous, cell-bound CD73 enzyme activity in SK-MEL-28 cells (Malachite Green). The following applies: 100 μM AMP, 30 minutes at room temperature. The format is cell-based. On the procedure:
The day before the experiment, 5000 cells were plated per well in a 96-well plate. Cells were washed twice with […] reaction buffer (20 mM HEPES, pH 7.4, 125 mM NaCl, 1 mM KCl, 2 mM MgCl2, 10 mM glucose) to remove residual inorganic phosphate. After washing, assays contained serial dilutions of test compounds and 100 μM of AMP in a total volume of 200 μL reaction buffer, with a final DMSO concentration≤0.5%. After 30 minutes at room temperature, supernatant was removed from the cells. […] The concentration of inorganic phosphate was determined using a phosphate standard curve to determine IC50.

Where only a bound is given, the exact number is not on record here.

Usually IC50 stands for the midpoint of a concentration-inhibition curve.

Sequence of endogenous, cell-bound CD73 on SK-MEL-28 cells (P21589 27-574): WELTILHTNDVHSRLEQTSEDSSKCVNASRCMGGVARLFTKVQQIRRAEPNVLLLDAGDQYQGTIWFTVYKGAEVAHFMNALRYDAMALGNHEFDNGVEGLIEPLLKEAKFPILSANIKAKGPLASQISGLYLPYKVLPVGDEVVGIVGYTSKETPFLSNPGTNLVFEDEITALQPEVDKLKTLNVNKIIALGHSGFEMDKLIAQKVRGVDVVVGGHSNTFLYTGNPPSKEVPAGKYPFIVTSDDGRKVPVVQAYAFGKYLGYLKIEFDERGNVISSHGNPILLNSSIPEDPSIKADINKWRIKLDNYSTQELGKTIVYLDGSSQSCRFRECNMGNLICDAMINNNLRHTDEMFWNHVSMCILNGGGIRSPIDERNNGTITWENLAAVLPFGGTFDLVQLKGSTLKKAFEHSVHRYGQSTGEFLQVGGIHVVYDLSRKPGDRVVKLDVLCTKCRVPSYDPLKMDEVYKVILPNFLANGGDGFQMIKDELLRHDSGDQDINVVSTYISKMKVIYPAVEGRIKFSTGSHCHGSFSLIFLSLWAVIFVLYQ

As to `Nc1nc(Cl)nc2c1ncn2[C@@H]1O[C@H](COC(Cc2cccc(-c3nnn[nH]3)c2)(C(=O)O)C(=O)O)[C@@H](O)[C@@H]1F` [compound 53, 2-(3-(1H-tetrazol-5-yl)benzyl)-2-(((2R,3R,4S,5R)-5-(6-amino-2-chloro-9H-purin-9-yl)-4-fluoro-3-hydroxytetrahydrofuran-2-yl)methoxy)malonic acid], the IC50 worked out at 2600 nM.
For `Nc1nc(Cl)nc2c1ncn2[C@@H]1O[C@H](COC(Cc2ccc(-c3nnn[nH]3)cc2)(C(=O)O)C(=O)O)[C@@H](O)[C@@H]1F` [compound 54, 2-(4-(1H-tetrazol-5-yl)benzyl)-2-(((2R,3R,4S,5R)-5-(6-amino-2-chloro-9H-purin-9-yl)-4-fluoro-3-hydroxytetrahydro-furan-2-yl)methoxy)malonic acid], half-maximal inhibition (IC50) required 973 nM.
Next, `Nc1nc(Cl)nc2c1ncn2[C@@H]1O[C@H](COC(Cc2ccccc2)(C(=O)O)C(=O)O)[C@@H](O)[C@H]1N` [compound 55, 2-(((2R,3S,4R,5R)-4-amino-5-(6-amino-2-chloro-9H-purin-9-yl)-3-hydroxytetrahydrofuran-2-yl)methoxy)-2-benzylmalonic acid]: above 50000 nM; `Nc1nc(Cl)nc2c1ncn2[C@@H]1O[C@H](COC(Cc2cccc(O)c2)(C(=O)O)C(=O)O)[C@@H](O)[C@@H]1F` [compound 56, 2-(((2R,3R,4S,5R)-5-(6-amino-2-chloro-9H-purin-9-yl)-4-fluoro-3-hydroxytetrahydrofuran-2-yl)methoxy)-2-(3-hydroxybenzyl)malonic acid]: 1250 nM.
Next, `Nc1nc(Cl)nc2c1ncn2[C@@H]1O[C@H](COC(Cc2ccc(C(=O)O)c(F)c2)(C(=O)O)C(=O)O)[C@@H](O)[C@@H]1F` [compound 58, 2-(((2R,3R,4S,5R)-5-(6-amino-2-chloro-9H-purin-9-yl)-4-fluoro-3-hydroxytetrahydro-furan-2-yl)methoxy)-2-(4-carboxy-3-fluorobenzyl)malonic acid]: 853 nM.
Next, `Nc1nc(Cl)nc2c1ncn2[C@@H]1O[C@H](COC(Cc2ccc(C(F)(F)F)o2)(C(=O)O)C(=O)O)[C@@H](O)[C@@H]1F` [compound 59, 2-(((2R,3R,4S,5R)-5-(6-amino-2-chloro-9H-purin-9-yl)-4-fluoro-3-hydroxytetrahydro-furan-2-yl)methoxy)-2-((5-(trifluoromethyl)-furan-2-yl)methyl)malonic acid]: 6980 nM.
`Nc1nc(Cl)nc2c1ncn2[C@@H]1O[C@H](COC(Cc2ccc(C(F)(F)F)c(F)c2)(C(=O)O)C(=O)O)[C@@H](O)[C@@H]1F` [compound 60, 2-(((2R,3R,4S,5R)-5-(6-amino-2-chloro-9H-purin-9-yl)-4-fluoro-3-hydroxytetrahydro-furan-2-yl)methoxy)-2-(3-fluoro-4-(trifluoromethyl)benzyl)malonic acid] gave an IC50 of 512 nM.
`Nc1nc(Cl)nc2c1ncn2[C@@H]1O[C@H](COC(Cc2cc(-c3ccccc3)no2)(C(=O)O)C(=O)O)[C@@H](O)[C@@H]1F` [compound 61, 2-(((2R,3R,4S,5R)-5-(6-amino-2-chloro-9H-purin-9-yl)-4-fluoro-3-hydroxytetrahydrofuran-2-yl)methoxy)-2-((3-phenylisoxazol-5-yl)methyl)malonic acid] had an IC50 of 6970 nM.
Next, `Nc1nc(Cl)nc2c1ncn2[C@@H]1O[C@H](COC(Cc2cnn(Cc3ccccc3)c2)(C(=O)O)C(=O)O)[C@@H](O)[C@@H]1F` [compound 63, 2-(((2R,3R,4S,5R)-5-(6-amino-2-chloro-9H-purin-9-yl)-4-fluoro-3-hydroxytetrahydro-furan-2-yl)methoxy)-2-((1-benzyl-1H-pyrazol-4-yl)methyl)malonic acid]: 2010 nM.
Next, `Nc1nc(Cl)nc2c1ncn2[C@@H]1O[C@H](COC(Cc2cn[nH]c2)(C(=O)O)C(=O)O)[C@@H](O)[C@@H]1F` [compound 64, 2-((1H-pyrazol-4-yl)methyl)-2-(((2R,3R,4S,5R)-5-(6-amino-2-chloro-9H-purin-9-yl)-4-fluoro-3-hydroxytetrahydrofuran-2-yl)methoxy)malonic acid]: 588 nM; `Nc1nc(Cl)nc2c1ncn2[C@@H]1O[C@H](COC(Cc2ccc(OCc3ccccc3)cc2)(C(=O)O)C(=O)O)[C@@H](O)[C@@H]1F` [compound 65, 2-(((2R,3R,4S,5R)-5-(6-amino-2-chloro-9H-purin-9-yl)-4-fluoro-3-hydroxytetrahydrofuran-2-yl)methoxy)-2-(4-(benzyloxy)benzyl)malonic acid]: 196 nM; `Nc1nc(Cl)nc2c1ncn2[C@@H]1O[C@H](COC(Cc2ccc(O)cc2)(C(=O)O)C(=O)O)[C@@H](O)[C@@H]1F` [compound 66, 2-(((2R,3R,4S,5R)-5-(6-amino-2-chloro-9H-purin-9-yl)-4-fluoro-3-hydroxytetrahydrofuran-2-yl)methoxy)-2-(4-hydroxybenzyl)malonic acid]: 426 nM.
Next, `Nc1nc(Cl)nc2c1ncn2[C@@H]1O[C@H](COC(Cc2cnc(C(=O)O)s2)(C(=O)O)C(=O)O)[C@@H](O)[C@@H]1F` [compound 67, 2-(((2R,3R,4S,5R)-5-(6-amino-2-chloro-9H-purin-9-yl)-4-fluoro-3-hydroxytetrahydro-furan-2-yl)methoxy)-2-((2-carboxythiazol-5-yl)methyl)malonic acid]: 1310 nM; `Nc1nc(Cl)nc2c1ncn2[C@@H]1O[C@H](COC(Cc2csc(C(=O)O)n2)(C(=O)O)C(=O)O)[C@@H](O)[C@@H]1F` [compound 68, 2-(((2R,3R,4S,5R)-5-(6-amino-2-chloro-9H-purin-9-yl)-4-fluoro-3-hydroxytetrahydro-furan-2-yl)methoxy)-2-((2-carboxythiazol-4-yl)methyl)malonic acid]: 924 nM.
Turning to `N#Cc1ccc(CC(OC[C@H]2O[C@@H](n3cnc4c(N)nc(Cl)nc43)[C@@H](F)[C@@H]2O)(C(=O)O)C(=O)O)cc1F` [compound 75, 2-(((2R,3R,4S,5R)-5-(6-amino-2-chloro-9H-purin-9-yl)-4-fluoro-3-hydroxytetrahydrofuran-2-yl)methoxy)-2-(4-cyano-3-fluorobenzyl)malonic acid], 990 nM corresponded to half-maximal inhibition (IC50).
Next, `Nc1nc(Cl)nc2c1ncn2[C@@H]1O[C@H](COC(Cc2csc(C(=O)O)c2)(C(=O)O)C(=O)O)[C@@H](O)[C@@H]1F` [compound 76, 2-(((2R,3R,4S,5R)-5-(6-amino-2-chloro-9H-purin-9-yl)-4-fluoro-3-hydroxytetrahydro-furan-2-yl)methoxy)-2-((5-carboxythiophen-3-yl)methyl)malonic acid]: 305 nM; `Nc1nc(Cl)nc2c1ncn2[C@@H]1O[C@H](COC(Cc2ccc(C(=O)O)s2)(C(=O)O)C(=O)O)[C@@H](O)[C@@H]1F` [compound 77, 2-(((2R,3R,4S,5R)-5-(6-amino-2-chloro-9H-purin-9-yl)-4-fluoro-3-hydroxytetrahydro-furan-2-yl)methoxy)-2-((5-carboxythiophen-2-yl)methyl)malonic acid]: 1330 nM.
The result for `Nc1nc(Cl)nc2c1ncn2[C@@H]1O[C@H](COC(Cc2ccc(CC(=O)O)cc2)(C(=O)O)C(=O)O)[C@@H](O)[C@@H]1F` [compound 78, 2-(((2R,3R,4S,5R)-5-(6-amino-2-chloro-9H-purin-9-yl)-4-fluoro-3-hydroxytetrahydrofuran-2-yl)methoxy)-2-(4-(carboxymethyl)benzyl)malonic acid] reads 234 nM.
